In the NIST ThermoML archive (doi:10.1016/j.jct.2006.06.008):

Assay: xn = mol fraction of the nth substance listed
Conditions: 101 kPa, Liquid

CCCCO [butan-1-ol] + C1CCCC1
x2 = 0
Conditions	mass density [kg/m3]	speed of sound [m/s]	viscosity [mPa·s]
293.15 K	809.5	1257	2.941
298.15 K	805.75	1240	2.571
303.15 K	801.8	1224	2.255

CCCCO [butan-1-ol] + C1CCCCC1
x2 = 0
Conditions	mass density [kg/m3]	speed of sound [m/s]	viscosity [mPa·s]
293.15 K	809.5	1257	2.941
298.15 K	805.75	1240	2.571
303.15 K	801.8	1224	2.255

C1CCCCC1 [cyclohexane] + CCCCO
Conditions	mass density, 293.15 K [kg/m3]	mass density, 298.15 K [kg/m3]	mass density, 303.15 K [kg/m3]	speed of sound, 293.15 K [m/s]	speed of sound, 298.15 K [m/s]	speed of sound, 303.15 K [m/s]	viscosity, 293.15 K [mPa·s]	viscosity, 298.15 K [mPa·s]	viscosity, 303.15 K [mPa·s]
x1 = 0.0491	807.27	803.41	799.52	1254	1237	1220	2.777	2.437	2.147
x1 = 0.0988	804.96	801.04	797.08	1252	1234	1217	2.593	2.278	2.009
x1 = 0.2003	800.76	796.72	792.63	1249	1230	1211	2.254	1.984	1.756
x1 = 0.3081	796.54	792.37	788.15	1246	1227	1207	1.937	1.712	1.514
x1 = 0.4082	792.86	788.57	784.23	1245	1224	1204	1.684	1.492	1.33
x1 = 0.5125	789.41	785.01	780.55	1245	1224	1202	1.449	1.293	1.16
x1 = 0.6157	786.28	781.77	777.21	1247	1225	1202	1.257	1.13	1.023
x1 = 0.7086	783.78	779.19	774.55	1250	1227	1204	1.121	1.014	0.928
x1 = 0.8022	781.56	776.91	772.21	1255	1231	1208	1.047	0.955	0.874
x1 = 0.9029	779.62	774.9	770.14	1263	1239	1215	0.995	0.904	0.829
x1 = 0.9519	778.88	774.15	769.37	1269	1244	1220	0.972	0.889	0.817
x1 = 1	778.62	773.92	769.19	1279	1254	1230	0.968	0.887	0.816

C1CCCCC1 [cyclohexane] + CCCO
Conditions	mass density, 293.15 K [kg/m3]	mass density, 298.15 K [kg/m3]	mass density, 303.15 K [kg/m3]	speed of sound, 293.15 K [m/s]	speed of sound, 298.15 K [m/s]	speed of sound, 303.15 K [m/s]	viscosity, 293.15 K [mPa·s]	viscosity, 298.15 K [mPa·s]	viscosity, 303.15 K [mPa·s]
x1 = 0.0487	801.17	797.11	793.02	1222	1205	1187	2.079	1.842	1.645
x1 = 0.0993	798.82	794.71	790.56	1222	1204	1186	1.958	1.74	1.552
x1 = 0.1967	794.76	790.54	786.28	1223	1204	1185	1.735	1.544	1.379
x1 = 0.2993	791.11	786.78	782.41	1225	1205	1185	1.544	1.38	1.234
x1 = 0.4017	787.98	783.54	779.05	1228	1207	1186	1.391	1.249	1.124
x1 = 0.5071	785.25	780.71	776.12	1233	1211	1189	1.253	1.126	1.015
x1 = 0.6048	783.08	778.47	773.8	1238	1215	1193	1.135	1.026	0.937
x1 = 0.7036	781.23	776.55	771.82	1244	1221	1198	1.036	0.941	0.858
x1 = 0.8062	779.66	774.94	770.17	1252	1228	1204	0.98	0.895	0.822
x1 = 0.9053	778.68	773.93	769.14	1262	1237	1213	0.972	0.887	0.816
x1 = 0.9522	778.41	773.66	768.87	1268	1243	1219	0.969	0.892	0.81
x1 = 1	778.62	773.92	769.19	1279	1254	1230	0.968	0.887	0.816

C1CCCCC1 [cyclohexane] + CCO
Conditions	mass density, 293.15 K [kg/m3]	mass density, 298.15 K [kg/m3]	mass density, 303.15 K [kg/m3]	speed of sound, 293.15 K [m/s]	speed of sound, 298.15 K [m/s]	speed of sound, 303.15 K [m/s]	viscosity, 293.15 K [mPa·s]	viscosity, 298.15 K [mPa·s]	viscosity, 303.15 K [mPa·s]
x1 = 0.0473	787	782.65	778.29	1162	1144	1127	1.148	1.046	0.956
x1 = 0.096	784.97	780.6	776.2	1165	1147	1129	1.102	1.009	0.922
x1 = 0.2043	781.33	776.87	772.37	1174	1155	1135	1.051	0.954	0.875
x1 = 0.3028	779.4	774.86	770.28	1184	1164	1144	1.005	0.918	0.838
x1 = 0.3979	778.2	773.6	768.95	1195	1174	1153	0.978	0.893	0.818
x1 = 0.5027	777.4	772.73	768	1208	1186	1164	0.954	0.87	0.796
x1 = 0.5939	776.98	772.26	767.49	1219	1196	1174	0.934	0.853	0.781
x1 = 0.7051	776.79	772.03	767.22	1232	1209	1186	0.915	0.836	0.769
x1 = 0.8055	776.89	772.11	767.28	1245	1221	1197	0.908	0.833	0.769
x1 = 0.9041	777.3	772.5	767.8	1258	1235	1211	0.923	0.846	0.778
x1 = 0.9534	777.74	772.98	768.18	1267	1242	1218	0.941	0.862	0.793
x1 = 1	778.62	773.92	769.19	1279	1254	1230	0.968	0.887	0.816

C1CCCC1 [cyclopentane] + CCCCO
Conditions	mass density, 293.15 K [kg/m3]	mass density, 298.15 K [kg/m3]	mass density, 303.15 K [kg/m3]	speed of sound, 293.15 K [m/s]	speed of sound, 298.15 K [m/s]	speed of sound, 303.15 K [m/s]	viscosity, 293.15 K [mPa·s]	viscosity, 298.15 K [mPa·s]	viscosity, 303.15 K [mPa·s]
x1 = 0.0446	–	802.7	798.9	–	1236	1218	–	2.388	2.108
x1 = 0.046	806.62	–	–	1252	–	–	2.714	–	–
x1 = 0.0914	803.7	–	–	1248	–	–	2.541	–	–
x1 = 0.0995	–	798.99	795.01	–	1229	1211	–	2.168	1.92
x1 = 0.1924	796.71	792.62	788.49	1239	1220	1201	2.095	1.855	1.651
x1 = 0.294	789.84	–	–	1230	–	–	1.683	–	–
x1 = 0.312	–	784.43	780.13	–	1209	1189	–	1.499	1.349
x1 = 0.3875	–	779.26	774.85	–	1203	1182	–	1.233	1.108
x1 = 0.398	782.75	–	–	1223	–	–	1.358	–	–
x1 = 0.5104	–	770.8	766.2	–	1194	1172	–	0.945	0.865
x1 = 0.5211	774.4	–	–	1215	–	–	1.014	–	–
x1 = 0.6157	–	763.63	758.89	–	1189	1166	–	0.748	0.689
x1 = 0.6208	767.72	–	–	1211	–	–	0.807	–	–
x1 = 0.7182	761.29	–	–	1209	–	–	0.654	–	–
x1 = 0.7372	–	755.6	750.73	–	1186	1162	–	0.588	0.547
x1 = 0.8124	755.51	–	–	1210	–	–	0.555	–	–
x1 = 0.8361	–	749.32	744.36	–	1187	1163	–	0.498	0.472
x1 = 0.9032	–	745.24	740.23	–	1191	1166	–	0.457	0.431
x1 = 0.9141	749.28	–	–	1216	–	–	0.48	–	–
x1 = 0.9502	–	742.52	737.48	–	1195	1170	–	0.432	0.409
x1 = 0.9551	746.78	–	–	1220	–	–	0.456	–	–
x1 = 1	744.52	739.55	734.54	1232	1206	1180	0.439	0.416	0.394
